29 compounds from US8178530B2, “Imidazolopyrazine compounds useful for the treatment of degenerative and inflammatory diseases” (Janssen Pharmaceutica NV, priority 2006, dated 2012) can be followed below.

In general, pEC50 refers to the negative decadic logarithm of the EC50, by convention in mol/L. Low values mean a high EC50, high ones a low EC50. A word on the pIC50: it is the IC50 on a negative log10 scale, so that one unit is a factor of ten. Read a low pIC50 as a large IC50.

Assay [1] relates to TNFα release by human PBMCs. In words: Cytokine release by LPS-stimulated human PBMCs (TNFα ELISA). The note with it: PBMC, LPS 1 μg/mL, 24 hr. The format is cell-based. Here is the method: Human peripheral blood mononuclear cells (PBMCs) are isolated from “buffy coats” prepared from the blood of healthy volunteers, isolated essentially according to method of Bøyum (1984). In brief, buffy coat is diluted 1:1 with 1×PBS (Gibco) and 30 mL is carefully put on top of 20 mL Lymphoprep™ (Lucron Bioproducts) in 50 mL Falcon tubes. After centrifugation (35 min, 400 g, 18° C.) the mononuclear cells are collected from the white interphase and washed 3 times with 1×PBS by resuspending and centrifugation (10 min, 200 g). Isolated PBMCs are finally resuspended in RPMI 1640 (Cat. No. 21875, Gibco) that is supplemented with 10% heat-inactivated FBS (Hyclone).
For the assay PBMCs are seeded at 2.5E6 cells/mL in 160 μL in 96-well plates (Nunc). Serial dilution of the test compounds are made first in DMSO (Sigma) and then diluted 50-fold in M199 medium (Gibco) containing 1% heat-inactivated FBS. Compounds are further 1/10 diluted in the assay plates to obtain final DMSO concentration of 0.2%. Cells are preincubated with the compounds for 1 hr at 37° C., 5% CO2. Then, cells are stimulated with LPS (Escherichia coli serotype 026:B6, Cat. No. L2654, Sigma) that is added in a volume of 20 μL to a final concentration of 1 μg/mL and cells are further cultured for 24 hr. The plates are centrifuged and the supernatant is collected and stored at −80° C. until analysis of appropriate dilutions in ELISAs.
The following 384-well chemiluminescent ELISA protocol was developed to measure TNFα levels in the supernatant: White Lumitrac 600 384-well plates (Greiner) are coated with (40 μL/well) anti-TNFα capture antibody (Cat. No. 551220, BD Pharmingen) that is diluted to 1 μg/mL in 1×PBS (Gibco). After overnight incubation at 4° C., plates are washed with 1×PBS (80 g NaCl, 2 g KCl (Sigma), 11.5 g Na2HPO4.7H2O and 2 g KH2PO4 in 10 L milliQ; pH 7.4) and blocked with 100 μL/well buffer B (1×PBS containing 1% BSA (Sigma), 5% sucrose (Sigma) and 0.05% NaN3 (Sigma)). After 4 hr incubation at RT, blocking buffer is removed and plates are washed once with PBST (1×PBS with 0.05% Tween-20 (Sigma)). Then, 40 μL of sample is transferred to the ELISA plates and plates are incubated at 4° C. Next day, plates are washed 3 times (twice with PBST and once with PBS) and 35 μL/well biotinylated anti-TNFα antibody (Cat. No. 554511, BD Pharmingen) diluted first to a concentration of 250 ng/ml in buffer D (1×PBS with 1% BSA) is added. After 2 h of incubation at RT, plates are washed as described above and 35 μL/well of a 1/2000 dilution of streptavidin-HRP conjugate (Cat. No. SNN2004, Biosource) in buffer D is added. After 45 min, plates are washed as described above and incubated for 5 min with 50 μL/well BM Chemiluminescence ELISA Substrate POD (Roche). Readout is performed on the Luminoscan Ascent Luminometer (Labsystems) with an integration time of 100 msec delivering raw data (RLU: relative luminescence units). The following controls are included in the experiments, a maximal signal control, in which the cells are activated by LPS but only the 0.2% DMSO vehicle (and thus no compound) is added. This control indicates the maximal level of TNFα that can be achieved in the test. A minimal signal control is also included in these experiments. Here, cells are not triggered. This control returns the basal TNFα levels produced by the PBMCs. The percent inhibition (PIN) of the TNFα release, achieved by the compounds is then calculated based on the RLU data returned by the ELISA with following formula: 100−[((TNFα level compound X at concentration Y−minimal TNFα levels)/(maximal TNFα levels−minimal TNFα levels))×100]. Where compounds are tested at 8 concentrations (1/3 serial dilution), EC50-values can be calculated by curve fitting of the means of the PIN data achieved for a compound at each test concentration. […]
A general note: ELISA stands for enzyme-linked immunosorbent assay.

The target of another assay is T1, MAPKAPK5 (Homo sapiens, UniProt Q8IW41).
T1 construct: 1 mU MAPKAP-K5
T1 sequence (Q8IW41 1-473): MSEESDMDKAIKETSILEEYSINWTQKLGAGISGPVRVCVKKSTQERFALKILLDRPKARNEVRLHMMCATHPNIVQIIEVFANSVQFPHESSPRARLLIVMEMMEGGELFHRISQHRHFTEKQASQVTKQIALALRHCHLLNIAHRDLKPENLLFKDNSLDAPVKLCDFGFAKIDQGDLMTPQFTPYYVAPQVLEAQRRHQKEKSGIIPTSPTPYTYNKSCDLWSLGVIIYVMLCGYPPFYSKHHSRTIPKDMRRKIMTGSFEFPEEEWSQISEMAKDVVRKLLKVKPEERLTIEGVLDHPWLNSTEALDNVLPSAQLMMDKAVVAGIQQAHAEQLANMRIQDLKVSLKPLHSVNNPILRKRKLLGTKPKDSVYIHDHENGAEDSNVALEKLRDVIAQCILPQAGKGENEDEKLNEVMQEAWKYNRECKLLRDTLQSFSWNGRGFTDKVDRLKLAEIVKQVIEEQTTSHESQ
Kind of assay: MAPKAP-K5 assay (FlashPlate, 33P-ATP). The class given is biochemical. The note with it: 0.6 μM ATP, 30 minutes at room temperature. How it is done: 3 μM MAPKAP-K5 peptide substrate

Each structure is given as a SMILES string. pEC50, pIC50: −log10 of the molar value.

The compound `CCN(CC)CCNC(=O)c1ccc(Nc2ncc(-c3cn[nH]c3)n3ccnc23)cc1` [Compound 32, N-(2-Diethylamino-ethyl)-4-[5-(1H-pyrazol-4-yl)-imidazo[1,2-a]pyrazin-8-ylamino]-benzamide] had a pEC50 in assay [1] of under 6.00. The pIC50 at MAPKAPK5 is 6.30 to 7.00.
For `CN1CCN(c2ccc(Nc3ncc(-c4ccc(C(N)=O)o4)n4ccnc34)cc2)CC1` [Compound 139, 5-{8-[4-(4-Methyl-piperazin-1-yl)-phenylamino]-imidazo[1,2-a]pyrazin-5-yl}-furan-2-carboxylic acid amide] the same measures were under 6.00 and under 6.00.
In the same order, the values of `Cc1[nH]ncc1-c1cnc(Nc2ccc(N3CCN(C)CC3)cc2)c2nccn12` [Compound 119, (4-(4-Methylpiperazin-1-yl)phenyl)-[5-(5-methyl-1H-pyrazol-4-yl)imidazo[1,2-a]pyrazin-8-yl]amine] are under 6.00 and 6.30 to 7.00.
For `CN1CCN(c2ccc(Nc3ncc(-c4ccc(C(N)=O)cn4)n4ccnc34)cc2)CC1` [Compound 128] the same measures were under 6.00 and under 6.00.
`O=C1NCc2cc(-c3cnc(Nc4ccc(N5CCOCC5)cc4)c4nccn34)sc21` [Compound 198, 2-[8-(4-Morpholin-4-yl-phenylamino)-imidazo[1,2-a]pyrazin-5-yl]-4,5-dihydro-thieno[2,3-c]pyrrol-6-one]: the pEC50 in assay [1] is under 6.00. The pIC50 at MAPKAPK5 was 6.30 to 7.00.
Regarding `CNC(=O)c1ccc(-c2cnc(Nc3ccc(N4CCN(C)CC4)cc3)c3nccn23)cc1` [Compound 116], in assay [1], the pEC50 was under 6.00. Also, the pIC50 at MAPKAPK5 is under 6.00.
In assay [1], `CN(C)Cc1cn(-c2ccc(Nc3ncc(-c4ccc(C(N)=O)cc4)n4ccnc34)cc2)nn1` [Compound 166, 4-{8-[4-(4-Dimethylaminomethyl-[1,2,3]triazol-1-yl)-phenylamino]-imidazo[1,2-a]pyrazin-5-yl}-benzamide] had a pEC50 of under 6.00. Moreover, the pIC50 against MAPKAPK5 was under 6.00.
Compound `Cc1cc(C(N)=O)ccc1-c1cnc(Nc2ccc(N3CCN(C)CC3)cc2)c2nccn12` [Compound 120] showed a pEC50 in assay [1] of under 6.00. Moreover, the pIC50 against MAPKAPK5 is under 6.00.
In assay [1], `O=C(NC1CCNC1)c1ccc(Nc2ncc(-c3cn[nH]c3)n3ccnc23)cc1` (stereo not shown) [Compound 55] had a pEC50 of under 6.00. This compound showed a pIC50 on MAPKAPK5 of 6.30 to 7.00.
For `NC(=O)c1ccc(-c2cnc(Nc3ccc(N4CCCCC4)cc3)c3nccn23)cc1` [Compound 144] the same measures were 7.00 to 9.00 and under 6.00.
In assay [1], `CN1CCC(Oc2ccc(Nc3ncc(-c4ccc(C(N)=O)c(F)c4)n4ccnc34)cc2)CC1` [Compound 149] gave a pEC50 of under 6.00. For the same compound, the pIC50 on MAPKAPK5 is under 6.00.
`C[C@@H]1CN(c2ccc(Nc3ncc(-c4csc(C(N)=O)c4)n4ccnc34)cc2)[C@@H](C)CN1C` [Compound 186] gave a pEC50 in assay [1] of under 6.00. Moreover, the pIC50 against MAPKAPK5 is 6.30 to 7.00.
For `NC(=O)c1ccc(-c2cnc(Nc3ccc(OCCN4CCOCC4)cc3)c3nccn23)cc1F` [Compound 146] the same measures were under 6.00 and under 6.00.
For `CN(C)C(CNC(=O)c1ccc(Nc2ncc(-c3cc[nH]c(=O)c3)n3ccnc23)cc1)c1cccnc1` (stereo not shown) [Compound 114] the same measures were under 6.00 and 6.30 to 7.00.
For the compound `Cn1nnc(-c2ccc(Nc3ncc(-c4cn[nH]c4)n4ccnc34)cc2)n1` [Compound 169, [4-(2-Methyl-2H-tetrazol-5-yl)-phenyl]-[5-(1H-pyrazol-4-yl)-imidazo[1,2-a]pyrazin-8-yl]-amine], in assay [1], the negative-log EC50 (pEC50) was under 6.00. On MAPKAPK5, the pIC50 was under 6.00.
As to `Cc1oc(-c2cnc(Nc3ccc(N4CCOCC4)cc3)c3nccn23)cc1C(N)=O` [Compound 188], the pEC50 in assay [1] is under 6.00. The negative logarithm of the IC50 (pIC50) against MAPKAPK5 was under 6.00.
The compound `CN1CCN(c2ccc(Nc3ncc(-c4ccc(C(N)=O)s4)n4ccnc34)cc2)CC1` [Compound 127, (4-(4-Methylpiperazin-1-yl)phenyl)-[5-(2-carboxamido-5-thienyl)imidazo[1,2-a]pyrazin-8-yl]amine] showed a pEC50 in assay [1] of under 6.00. At MAPKAPK5, this compound had a pIC50 of 6.30 to 7.00.
In the same order, the values of `CN1CCN(c2ccc(Nc3ncc(-c4ccc(C(N)=O)cc4)n4ccnc34)cc2)CC1` [Compound 143] are under 6.00 and under 6.00.
For `NC(=O)c1ccc(-c2cnc(Nc3ccc(N4CCN(CCO)CC4)cc3)c3nccn23)cc1` [Compound 156] the same measures were under 6.00 and 6.00 to 6.30.
Turning to `c1cn2c(-c3c[nH]cn3)cnc(Nc3ccc(N4CCOCC4)cc3)c2n1` [Compound 163], in assay [1], the pEC50 is under 6.00. The pIC50 against MAPKAPK5 is under 6.00.
Consider `O=C(Nc1ccccc1)c1ccc(Nc2ncc(-c3cn[nH]c3)n3ccnc23)cc1` [Compound 41], for which the pEC50 in assay [1] was under 6.00. At MAPKAPK5, this compound showed a pIC50 of under 6.00.
`CN1CCN(c2ccc(Nc3ncc(-c4csc(C(N)=O)c4)n4ccnc34)cc2)CC1` [Compound 118] had a pEC50 in assay [1] of under 6.00. Further, at MAPKAPK5, the negative logarithm of the IC50 (pIC50) is 6.30 to 7.00.
In the same order, the values of `O=C(NCc1ccc(O)cc1)c1ccc(Nc2ncc(-c3cn[nH]c3)n3ccnc23)cc1` [Compound 90, N-(4-Hydroxybenzyl)-4-[5-(1H-pyrazol-4-yl)imidazo[1,2-a]pyrazin-8-ylamino]benzamide] are under 6.00 and 6.00 to 6.30.
For `C[C@@H]1CN(C)[C@@H](C)CN1c1ccc(Nc2ncc(-c3ccc(C(N)=O)cc3)n3ccnc23)cc1` [Compound 137] the same measures were under 6.00 and 6.30 to 7.00.
For `CCN(CC)CCNS(=O)(=O)c1ccc(Nc2ncc(-c3ccc(C(N)=O)cc3)n3ccnc23)cc1` [Compound 98] the same measures were under 6.00 and under 6.00.
`CN1CCN(c2ccc(Nc3ncc(-c4ccc(C(N)=O)nc4)n4ccnc34)cc2)CC1` [Compound 129, 5-{8-[4-(4-Methyl-piperazin-1-yl)-phenylamino]-imidazo[1,2-a]pyrazin-5-yl}-pyridine-2-carboxylic acid amide] had a pEC50 in assay [1] of under 6.00. For the same compound, the pIC50 against MAPKAPK5 is under 6.00.
On to `NS(=O)(=O)c1ccc(Nc2ncc(-c3cn[nH]c3)n3ccnc23)cc1` [Compound 36], for which, in assay [1], the pEC50 was under 6.00. At MAPKAPK5, this compound had a pIC50 of 6.30 to 7.00.
For `O=C(c1ccc(Nc2ncc(-c3cn[nH]c3)n3ccnc23)cc1)N1CCOCC1` [Compound 45] the same measures were under 6.00 and 6.00 to 6.30.
`CN1CCN(c2ccc(Nc3ncc(-c4cc(F)c(C(N)=O)c(F)c4)n4ccnc34)cc2)CC1` [Compound 140] showed a pEC50 in assay [1] of under 6.00. This compound also had a pIC50 against MAPKAPK5 of 6.30 to 7.00.
